Laboratory results reported in BigSolDB 2.1.

## O=c1c2ccccc2sc2ccccc12
In ethanol, 311.15 K
  solubility (mole fraction): 0.000847
In ethanol, 313.85 K
  solubility (mole fraction): 0.00103
In ethanol, 316.85 K
  solubility (mole fraction): 0.00126
In ethanol, 319.35 K
  solubility (mole fraction): 0.00153
In ethanol, 322.55 K
  solubility (mole fraction): 0.00189
In ethanol, 326.55 K
  solubility (mole fraction): 0.00247
In ethanol, 331.55 K
  solubility (mole fraction): 0.00342
In ethanol, 335.95 K
  solubility (mole fraction): 0.00452
In ethyl acetate, 292.15 K
  solubility (mole fraction): 0.00273
In ethyl acetate, 297.05 K
  solubility (mole fraction): 0.00319
In ethyl acetate, 302.05 K
  solubility (mole fraction): 0.00371
In ethyl acetate, 305.05 K
  solubility (mole fraction): 0.00405
In ethyl acetate, 307.95 K
  solubility (mole fraction): 0.00444
In ethyl acetate, 311.15 K
  solubility (mole fraction): 0.00485
In ethyl acetate, 313.85 K
  solubility (mole fraction): 0.00525
In ethyl acetate, 316.85 K
  solubility (mole fraction): 0.00565
In ethyl acetate, 319.35 K
  solubility (mole fraction): 0.00608
In ethyl acetate, 322.55 K
  solubility (mole fraction): 0.00655
In ethyl acetate, 326.55 K
  solubility (mole fraction): 0.00732
In ethyl acetate, 331.55 K
  solubility (mole fraction): 0.0083
In ethyl acetate, 335.95 K
  solubility (mole fraction): 0.00924
In isopropanol, 292.15 K
  solubility (mole fraction): 0.000395
In isopropanol, 297.05 K
  solubility (mole fraction): 0.000539
In isopropanol, 302.05 K
  solubility (mole fraction): 0.000733
In isopropanol, 305.05 K
  solubility (mole fraction): 0.000877
In isopropanol, 307.95 K
  solubility (mole fraction): 0.00106
In isopropanol, 311.15 K
  solubility (mole fraction): 0.00126
In isopropanol, 313.85 K
  solubility (mole fraction): 0.00145
In isopropanol, 316.85 K
  solubility (mole fraction): 0.00172
In isopropanol, 319.35 K
  solubility (mole fraction): 0.00198
In isopropanol, 322.55 K
  solubility (mole fraction): 0.00234
In isopropanol, 326.55 K
  solubility (mole fraction): 0.00288
In isopropanol, 331.55 K
  solubility (mole fraction): 0.00371
In isopropanol, 335.95 K
  solubility (mole fraction): 0.00461
In methanol, 292.15 K
  solubility (mole fraction): 0.000163
In methanol, 297.05 K
  solubility (mole fraction): 0.000225
In methanol, 301.95 K
  solubility (mole fraction): 0.000284
In methanol, 306.65 K
  solubility (mole fraction): 0.000316
In methanol, 311.25 K
  solubility (mole fraction): 0.0004
In methanol, 316.15 K
  solubility (mole fraction): 0.000469
In methanol, 321.25 K
  solubility (mole fraction): 0.00062
In methanol, 326.55 K
  solubility (mole fraction): 0.000788
In methanol, 331.55 K
  solubility (mole fraction): 0.000921
In methanol, 335.95 K
  solubility (mole fraction): 0.00106
In n-propanol, 292.15 K
  solubility (mole fraction): 0.000546
In n-propanol, 297.05 K
  solubility (mole fraction): 0.00061
In n-propanol, 301.95 K
  solubility (mole fraction): 0.000782
In n-propanol, 306.65 K
  solubility (mole fraction): 0.000892
In n-propanol, 311.25 K
  solubility (mole fraction): 0.00114
In n-propanol, 316.15 K
  solubility (mole fraction): 0.00134
In n-propanol, 321.25 K
  solubility (mole fraction): 0.00175
In n-propanol, 326.55 K
  solubility (mole fraction): 0.00214
In n-propanol, 331.55 K
  solubility (mole fraction): 0.00251
In n-propanol, 335.95 K
  solubility (mole fraction): 0.00317
In toluene, 292.15 K
  solubility (mole fraction): 0.00373
In toluene, 297.05 K
  solubility (mole fraction): 0.00456
In toluene, 302.05 K
  solubility (mole fraction): 0.00554
In toluene, 305.05 K
  solubility (mole fraction): 0.00624
In toluene, 307.95 K
  solubility (mole fraction): 0.0069
In toluene, 311.15 K
  solubility (mole fraction): 0.00782
In toluene, 313.85 K
  solubility (mole fraction): 0.00858
In toluene, 316.85 K
  solubility (mole fraction): 0.0096
In toluene, 319.35 K
  solubility (mole fraction): 0.0103
In toluene, 322.55 K
  solubility (mole fraction): 0.0116
In toluene, 326.55 K
  solubility (mole fraction): 0.0134
In toluene, 331.55 K
  solubility (mole fraction): 0.0158
In toluene, 335.95 K
  solubility (mole fraction): 0.0181
